Data on 29 compounds can be found in patent publication US8796289B2 (AbbVie Inc., priority 2011, dated 2014).

In one assay the target is GST-tagged-Wee1 kinase (Homo sapiens, UniProt P30291). The assay can be described thus: Wee1 time-resolved fluorescence equilibrium binding assay (displacement of Oregon Green-labeled ATP-competitive kinase probe).
Sequence of GST-tagged-Wee1 kinase (P30291 whole entry): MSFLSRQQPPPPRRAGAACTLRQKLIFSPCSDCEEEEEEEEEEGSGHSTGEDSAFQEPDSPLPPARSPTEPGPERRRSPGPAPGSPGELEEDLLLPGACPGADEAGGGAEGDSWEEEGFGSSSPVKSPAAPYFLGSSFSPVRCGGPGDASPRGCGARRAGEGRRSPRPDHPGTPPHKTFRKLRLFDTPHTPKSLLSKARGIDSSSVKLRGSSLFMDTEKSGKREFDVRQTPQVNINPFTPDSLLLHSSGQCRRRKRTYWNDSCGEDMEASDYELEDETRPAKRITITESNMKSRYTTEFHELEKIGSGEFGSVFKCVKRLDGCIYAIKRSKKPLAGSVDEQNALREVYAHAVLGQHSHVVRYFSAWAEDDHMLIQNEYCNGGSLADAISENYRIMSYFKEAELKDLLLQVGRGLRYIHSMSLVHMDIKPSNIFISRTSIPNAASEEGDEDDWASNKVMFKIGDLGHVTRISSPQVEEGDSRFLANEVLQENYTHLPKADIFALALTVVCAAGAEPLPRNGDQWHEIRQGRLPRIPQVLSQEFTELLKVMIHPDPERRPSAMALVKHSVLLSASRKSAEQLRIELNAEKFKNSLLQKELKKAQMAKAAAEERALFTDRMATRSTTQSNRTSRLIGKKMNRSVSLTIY
Conditions: not given
The method, then:
Wee1 kinase was assayed using a time-resolved fluorescence equilibrium binding assay monitoring displacement of a rapidly reversible Oregon Green-labeled ATP-competitive kinase probe (N-(2-(2-(2-(4-(4-(5-chloro-4-(2-(1-hydroxycyclobutyl)thiazol-5-yl)-1H-pyrrolo[2,3-b]pyridin-2-yl)phenyl)piperazin-1-yl)ethoxy)ethoxy)ethyl)-2′,7′-difluoro-3′,6′-dihydroxy-3-oxo-3H-spiro[isobenzofuran-1,9′-xanthene]-5-carboxamide) by competitive Wee1 inhibitors.
Regarding `CC(C)n1nc(-c2ccncc2)c2nc(Nc3ccc4c(c3)CN(C)CC43CC3)ncc2c1=O` [Example 275, 2-[(2′-methyl-2′,3′-dihydro-1′H-spiro[cyclopropane-1,4′-isoquinolin]-7′-yl)amino]-6-(propan-2-yl)-8-(pyridin-4-yl)pyrimido[4,5-d]pyridazin-5(6H)-one], the Ki (usually the equilibrium dissociation constant of an inhibitor or competing ligand from its target) is 3.2 nM. The same measure, in the same setting: under `Cc1cc(Nc2ncc3c(=O)n(-c4ccccc4C)nc(-c4cccs4)c3n2)ccc1N1CCN(C(C)C)CC1` [Example 119, 2-{[4-(4-isopropylpiperazin-1-yl)-3-methylphenyl]amino}-6-(2-methylphenyl)-8-(2-thienyl)pyrimido[4,5-d]pyridazin-5(6H)-one] stands 1 nM; under `CC1(C)CNCc2cc(Nc3ncc4c(=O)n(CCO)nc(-c5ccccn5)c4n3)ccc21` [Example 283, 2-[(4,4-dimethyl-1,2,3,4-tetrahydroisoquinolin-7-yl)amino]-6-(2-hydroxyethyl)-8-(pyridin-2-yl)pyrimido[4,5-d]pyridazin-5(6H)-one], 30 nM. On the same count and under the same terms, under `CN1CCN(c2ccc(Nc3ncc4c(=O)n(-c5c(Cl)cccc5Cl)nc(C5CCCNC5)c4n3)cc2)CC1` (centres unmarked) [Example 105, 6-(2,6-dichlorophenyl)-2-{[4-(4-methylpiperazin-1-yl)phenyl]amino}-8-(piperidin-3-yl)pyrimido[4,5-d]pyridazin-5(6H)-one] stands 4 nM; under `Cc1cc(Nc2ncc3c(=O)n(-c4c(F)cccc4Cl)nc(C)c3n2)ccc1N1CCCN(C)CC1` [Example 368, 6-(2-chloro-6-fluorophenyl)-8-methyl-2-(3-methyl-4-(4-methyl-1,4-diazepan-1-yl)phenylamino)pyrimido[4,5-d]pyridazin-5(6H)-one], 0.54 nM; under `Cc1ccccc1-n1nc(-c2ccco2)c2nc(Nc3ccc4c(c3)CN(C)CC43CC3)ncc2c1=O` [Example 145, 8-(2-furyl)-2-[(2′-methyl-2′,3′-dihydro-1′H-spiro[cyclopropane-1,4′-isoquinolin]-7′-yl)amino]-6-(2-methylphenyl)pyrimido[4,5-d]pyridazin-5(6H)-one], 0.3 nM. Same read-out and setting: in the case of `Cc1nn(-c2c(Cl)cccc2Cl)c(=O)c2cnc(Nc3ccc4c(c3)CN(S(N)(=O)=O)CC43CC3)nc12` [Example 436, 7′-{[6-(2,6-dichlorophenyl)-8-methyl-5-oxo-5,6-dihydropyrimido[4,5-d]pyridazin-2-yl]amino}-1′H-spiro[cyclopropane-1,4′-isoquinoline]-2′(3′H)-sulfonamide] it was 0.65 nM.

In turn, `Cc1ccccc1-n1nc(-c2cccs2)c2nc(Nc3ccc(CN(C)C)cc3)ncc2c1=O` [Example 208, 2-({4-[(dimethylamino)methyl]phenyl}amino)-6-(2-methylphenyl)-8-(thiophen-2-yl)pyrimido[4,5-d]pyridazin-5(6H)-one] returned a Ki of 2 nM. Turning to `O=c1c2cnc(Nc3ccc(C4CCNC4)cc3)nc2c(C(F)(F)F)nn1-c1c(Cl)cccc1Cl` (centres unmarked) [Example 422, 6-(2,6-dichlorophenyl)-2-{[4-(pyrrolidin-3-yl)phenyl]amino}-8-(trifluoromethyl)pyrimido[4,5-d]pyridazin-5(6H)-one], the affinity corresponds to a Ki of 0.4 nM. Same read-out and setting: under `CN1Cc2cc(Nc3ncc4c(=O)n(-c5c(Cl)cccc5Cl)nc(C5CCC5)c4n3)ccc2C2(CC2)C1` [Example 280, 8-cyclobutyl-6-(2,6-dichlorophenyl)-2-[(2′-methyl-2′,3′-dihydro-1′H-spiro[cyclopropane-1,4′-isoquinolin]-7′-yl)amino]pyrimido[4,5-d]pyridazin-5(6H)-one] stands 0.51 nM; under `CN1Cc2cc(Nc3ncc4c(=O)n(-c5c(Cl)cccc5Cl)nc(-c5cccnc5)c4n3)ccc2C2(CC2)C1` [Example 101, 6-(2,6-dichlorophenyl)-2-[(2′-methyl-2′,3′-dihydro-1′H-spiro[cyclopropane-1,4′-isoquinolin]-7′-yl)amino]-8-(pyridin-3-yl)pyrimido[4,5-d]pyridazin-5(6H)-one], 0.02 nM. Same read-out and setting: under `O=c1c2cnc(Nc3ccc(N4CCNCC4)cc3)nc2c(-c2cncs2)nn1-c1c(Cl)cccc1Cl` [Example 319, 6-(2,6-dichlorophenyl)-2-{[4-(piperazin-1-yl)phenyl]amino}-8-(1,3-thiazol-5-yl)pyrimido[4,5-d]pyridazin-5(6H)-one] stands 0.39 nM; under `C=CCn1nc(-c2ccc(Cl)cc2Cl)c2nc(Nc3ccc(N4CCN(C)CC4)cc3)ncc2c1=O` [Example 47, 6-allyl-8-(2,4-dichlorophenyl)-2-{[4-(4-methylpiperazin-1-yl)phenyl]amino}pyrimido[4,5-d]pyridazin-5(6H)-one], 240 nM. Still for that read-out and setting: in the case of `CN1CCN(c2ccc(Nc3ncc4c(=O)n(-c5ncccc5Cl)nc(-c5ccccn5)c4n3)cc2)CC1` [Example 348, 6-(3-chloropyridin-2-yl)-2-{[4-(4-methylpiperazin-1-yl)phenyl]amino}-8-(pyridin-2-yl)pyrimido[4,5-d]pyridazin-5(6H)-one] it was 1.8 nM; in that of `COc1cc(N2CCC(N3CCN(C)CC3)CC2)ccc1Nc1ncc2c(=O)n(-c3c(Cl)cccc3Cl)nc(C)c2n1` [Example 363, 6-(2,6-dichlorophenyl)-2-({2-methoxy-4-[4-(4-methylpiperazin-1-yl)piperidin-1-yl]phenyl}amino)-8-methylpyrimido[4,5-d]pyridazin-5(6H)-one], 40 nM. `Cn1cnc(-c2nn(-c3c(Cl)cccc3Cl)c(=O)c3cnc(Nc4ccc5c(c4)CNCC54CC4)nc23)c1` [Example 341, 6-(2,6-dichlorophenyl)-2-(2′,3′-dihydro-1′H-spiro[cyclopropane-1,4′-isoquinolin]-7′-ylamino)-8-(1-methyl-1H-imidazol-4-yl)pyrimido[4,5-d]pyridazin-5(6H)-one] gave a Ki of 1 nM. Still for that read-out and setting: under `O=c1c2cnc(Nc3ccc4c(c3)CNCC43CC3)nc2c(C(F)(F)F)nn1-c1c(Cl)cccc1Cl` [Example 420, 6-(2,6-dichlorophenyl)-2-(2′,3′-dihydro-1′H-spiro[cyclopropane-1,4′-isoquinolin]-7′-ylamino)-8-(trifluoromethyl)pyrimido[4,5-d]pyridazin-5(6H)-one] stands 0.45 nM.

In turn, `Cc1nn(-c2c(Cl)cccc2Cl)c(=O)c2cnc(Nc3ccc(C4CCN(C)CC4)cc3)nc12` [Example 456, 6-(2,6-dichlorophenyl)-8-methyl-2-{[4-(1-methylpiperidin-4-yl)phenyl]amino}pyrimido[4,5-d]pyridazin-5(6H)-one] registered a Ki of 0.5 nM. The same measure, in the same setting: in the case of `CN1CCCC(n2nc(-c3ccccn3)c3nc(Nc4ccc(N5CCNCC5)cc4)ncc3c2=O)C1` (centres unmarked) [Example 334, 6-(1-methylpiperidin-3-yl)-2-{[4-(piperazin-1-yl)phenyl]amino}-8-(pyridin-2-yl)pyrimido[4,5-d]pyridazin-5(6H)-one] it was 640 nM.

The compound `O=c1c2cnc(Nc3ccc(N4CCNCC4)cc3)nc2c(CO)nn1-c1c(Cl)cccc1Cl` [Example 430, 6-(2,6-dichlorophenyl)-8-(hydroxymethyl)-2-{[4-(piperazin-1-yl)phenyl]amino}pyrimido[4,5-d]pyridazin-5(6H)-one] gave a Ki of 0.2 nM. Still for that read-out and setting: in the case of `Cc1ccccc1-n1nc(-c2cccs2)c2nc(Nc3ccc(N4CCN(C(C)C)CC4)cc3)ncc2c1=O` [Example 118, 2-{[4-(4-isopropylpiperazin-1-yl)phenyl]amino}-6-(2-methylphenyl)-8-(2-thienyl)pyrimido[4,5-d]pyridazin-5(6H)-one] it was 1 nM. Still for that read-out and setting: under `CN1CCN(c2ccc(Nc3ncc4c(=O)n(-c5ccccc5)nc(-c5ccncn5)c4n3)cc2)CC1` [Example 177, 2-{[4-(4-methylpiperazin-1-yl)phenyl]amino}-6-phenyl-8-(pyrimidin-4-yl)pyrimido[4,5-d]pyridazin-5(6H)-one] stands 19 nM; under `O=c1c2cnc(Nc3ccc4c(c3)CCNC4)nc2c(C(F)F)nn1-c1c(Cl)cccc1Cl` [Example 473, 6-(2,6-dichlorophenyl)-8-(difluoromethyl)-2-(1,2,3,4-tetrahydroisoquinolin-6-ylamino)pyrimido[4,5-d]pyridazin-5(6H)-one], 0.38 nM; under `Cc1ccccc1-n1nc(-c2ccc(-c3ncccn3)cc2)c2nc(Nc3ccc(N4CCN(C)CC4)cc3)ncc2c1=O` [Example 64, 6-(2-methylphenyl)-2-{[4-(4-methylpiperazin-1-yl)phenyl]amino}-8-[4-(pyrimidin-2-yl)phenyl]pyrimido[4,5-d]pyridazin-5(6H)-one], 0.3 nM. In the case of `Cc1nn(-c2c(Cl)cccc2Cl)c(=O)c2cnc(Nc3ccc4c(c3)CNC(=O)C4)nc12` [Example 467, 6-(2,6-dichlorophenyl)-8-methyl-2-[(3-oxo-1,2,3,4-tetrahydroisoquinolin-7-yl)amino]pyrimido[4,5-d]pyridazin-5(6H)-one], the Ki was determined as 0.47 nM. On the same count and under the same terms, in the case of `C=CCn1nc(C2CC(F)(F)C2)c2nc(Nc3ccc(N4CCN(C)CC4)cc3)ncc2c1=O` [Example 196, 8-(3,3-difluorocyclobutyl)-2-{[4-(4-methylpiperazin-1-yl)phenyl]amino}-6-(prop-2-en-1-yl)pyrimido[4,5-d]pyridazin-5(6H)-one] it was 230 nM; in that of `CN1CCN(c2ccc(Nc3ncc4c(=O)n(C)nc(-c5ccccc5)c4n3)cc2)CC1` [Example 3, 6-methyl-2-{[4-(4-methylpiperazin-1-yl)phenyl]amino}-8-phenylpyrimido[4,5-d]pyridazin-5(6H)-one], 180 nM; in that of `Cn1cnc(-c2nn(-c3ncccc3Cl)c(=O)c3cnc(Nc4ccc5c(c4)CNCC54CC4)nc23)c1` [Example 352, 6-(3-chloropyridin-2-yl)-2-(2′,3′-dihydro-1′H-spiro[cyclopropane-1,4′-isoquinolin]-7′-ylamino)-8-(1-methyl-1H-imidazol-4-yl)pyrimido[4,5-d]pyridazin-5(6H)-one], 12 nM.

The same assay, now with this note: read-out: Wee-1 inhibition Ki.
Consider “8-(6-chloropyridin-2-yl)-6-(2,6-dichlorophenyl)-2-{[4-(4-methylpiperazin-1-yl)phenyl]amino}pyrimido[4,5-d]pyridazin-5(6H)-one [Example 75]”, for which the Ki stood at 0.08 nM.
